For series [1], the system named is increase in blood pressure induced by serotonin. Nature of the series: inhibition of the increase in blood pressure induced by serotonin in the pithed rat on intravenous administration. The class given is in vivo, rat (male Sprague-Dawley). The note with it: for ED50: iv, serotonin 0.0215 mg/kg i.v., read-out: ED 50% (dose which inhibits the increase in blood pressure due to serotonin by 50%). On the procedure: The pithing is carried out by a rod through the orbit. […] The criterion of an action of a substance is the relative inhibition (δ-%) of the increase in blood pressure induced by serotonin (δmm Hg). The quantitative evaluation is by analysis of the linear regression (y =a+b x) between log dose (mg/kg) and relative inhibition (δ%) of the increase in blood pressure due to serotonin.

The subject of series [2] is serotonin. Nature of the series: serotonin-antagonistic action on oral administration. The class given is in vivo. To be noted: (S)-emopamil vs verapamil.
The test system of series [3] is blood/brain barrier. To be noted: rat, in vivo.
Excerpt: (§1) The calculated BUI values indicate the cerebral uptake as a percentage of the water uptake.
In series [4] the test system is blood/brain barrier. Briefly: brain uptake index (BUI) after injection into the common carotid artery of the anesthetized rat, single passage through the cerebral capillaries. To be noted: [14C]-labeled test substance, [3H]-labeled water as internal standard, HEPES-buffered Ringer solution pH=7.35, anesthetized rat.
Excerpt: as §1
For series [5], the system named is serotonin. The note with it: by comparison with known serotonin antagonists; cited from earlier work.

As for `CC(C)[C@@](C#N)(CCCN(C)CCc1ccccc1)c1ccccc1` [(S)-Emopamil, 2-isopropyl-5-(methyl-phenethylamino)-2-phenylvaleronitrile], the “antiserotonin action (in words)” value in series [1] (compared with known serotonin antagonists and verapamil) is “reaches the potency of known serotonin antagonists and exceeds by a multiple that of the comparison compound verapamil”. Besides, the ED50 in series [1] (pithed rat, i.v.) came to 0.02 mg/kg. For the same molecule, in series [1] (pithed rat, i.v., (S)-emopamil vs verapamil), the “serotonin-antagonistic action relative to verapamil (times)” value was 18 times. For the same molecule, the “superiority to verapamil in the serotonin-antagonistic action (factor)” value in the series with serotonin [2] is listed as 4.6. Further, the “passage of the blood/brain barrier (in words)” value in the series on blood/brain barrier [3] was “passes the blood/brain barrier more rapidly and in considerably larger amounts than does verapamil”. Besides, the “BUI value (cerebral uptake as a percentage of the water uptake)” value with blood/brain barrier [4] is 110%.
Take `COc1ccc(CCN(C)CCCC(C#N)(c2ccc(OC)c(OC)c2)C(C)C)cc1OC` (centres unmarked) [Verapamil, reference compound]: the ED50 in series [1] (pithed rat, i.v.) worked out at 0.36 mg/kg. In addition, in the series with serotonin [5], the “serotonin-antagonistic action (in words)” value is “weak by comparison with known serotonin antagonists”.

Source of the values: patent publication US4914125A, “(S)-emopamil for the treatment of migraine” (priority 1988, dated 1990).
